From patent US10363229B2, “Methods and compositions for the treatment of cancer” (priority 2009, dated 2019)

Columns and labels:
[1] = test system: p27 in melanoma cells; experiment: Immunofluorescence of p27; format: cell-based, mouse; conditions: cells treated with methyl sulfone
Description: Cells were grown on 12 mm coverslips until 60 to 70% confluent. 2% methyl sulfone was added to half the coverslips and normal medium to other half. After 24, 48, and 96 hours, coverslips were placed in porcelain holders and incubated in 37° C. PBS for 30 seconds followed by incubation in 37° C. 4% paraformaldehyde for 10 minutes. Cells were washed in PBS for 5 minutes followed by incubation in 0.2% Triton X-100/PBS for 5 minutes at room temperature. Chicken serum ([…] in 1 ml PBS) was added to cells for 30 minutes. Cells were washed 3 times in 0.2% Triton X-100/PBS, 3 minutes each. Rabbit anti-p27 polyclonal antibody, (Santa Cruz Biotech, Calif.) was diluted 1/250 in 1% BSA/PBS and added to coverslips for 1.5 hours. Cells were washed 5 times in 0.2% Triton X-100/PBS, 3 minutes each. Secondary antibody, Alexa Fluor 488 chicken anti-rabbit antibody, was diluted 1/1000 in 1% BSA/PBS and added to coverslips for 30 minutes in the dark. Cells were washed five times in 0.2% Triton X-100/PBS, three minutes each. Cells were washed twice in PBS for two minutes each and placed in DAPI, diluted 1/1000 in PBS, for 5 minutes. Cells were washed in PBS for one minute. SlowFade was added to slides, coverslips were placed face down and sealed with nail polish. […]

[2] = test system: M3 Cloudman melanoma cells; experiment: Live cell video microscopy of melanoma cells (morphology, contact inhibition); format: cell-based, mouse
Description: Cloudman S-91 mouse melanoma cells (sub-clone M-3, CCL 53.1; American Type Culture Collection, Rockville, Md.) were grown in RMPI medium supplemented with 10% fetal bovine serum (Invitrogen, Inc) and 5% penicillin-streptomycin (Invitrogen, Inc). Mouse breast cancer cells (66Cl-1; American Type Culture Collection, Rockville, Md.) that are estrogen-receptor negative were grown in DMEM medium supplemented with 10% fetal bovine serum (Invitrogen, Inc) and 5% penicillin/streptomycin (Invitrogen, Inc). Human T-cell leukemic lymphocytes (CEM; American Type Culture Collection, Rockville, Md.) were grown in MEM medium supplemented with 7% fetal calf serum. Cultures were passaged twice a week.
Cells were plated on 35 mm tissue culture dishes at concentration of 10^5 cells/plate, unless stated otherwise, and incubated at 37° C., 5% CO2. After 24 hours, methyl sulfone (0-10% in medium) was added to appropriate plates and immediately videotaped with a Nikon TE300 inverted microscope equipped with a 10×0.25 NA Plan Achromat objective lens. Control cells (no drug) were videotaped as described above. Time series (10 min) of phase contrast images were acquired at a video rate of 1 frame/5 s with a Watec-902B CCD video camera (Watec Corp., Japan) via the stream acquisition option of Metamorph image acquisition and analysis software (Universal Imaging Corp., Downington, Pa.). During recordings, cells were kept at 37° C. with 10 mM Hepes, pH 7.4. Time series of cells +/−2% methyl sulfone were obtained every 24-48 hours for up to 6 weeks.
M3 Cloudman melanoma cells were plated into culture dishes containing RPMI medium. After 24 hour media was changed to control medium (no drug) or to media containing different concentrations of methyl sulfone (1-10% methyl sulfone in RPMI medium). Cells were examined by live cell video microscopy immediately after adding drug and every 24 hours up to 144 hours.
The possibility that the data generated from treating cells with methyl sulfone was a nonspecific effect due to changes in extracellular osmolarity was considered. To test this possibility an equimolar concentration of urea was substituted for 2% methyl sulfone; urea has a chemical structure and dipolar moment that is similar to methyl sulfone. […] We next replaced 2% methyl sulfone with an equimolar concentration of dimethyl sulfoxide (DMSO).

For methyl sulfone, which “localization of p27” value [1] is on record?
Its value is “localized in the nuclei”.

And the contact inhibition ([2]; 2% methyl sulfone, by 24 hours)?
Its contact inhibition is “contact inhibited”.

What about the “cell morphology after re-attachment” value ([2]; 2% methyl sulfone, over the next few hours) of the same substance?
Its value is “flattened morphology”.

What about the “morphology immediately after adding drug” value ([2]; all concentrations (1-10% in RPMI medium)) of the same substance?
The value was “cells became round with some cells detaching from culture plates”.
